Measured values: patent US20150346599A1, “PHOTO-DESTROYABLE QUENCHER AND ASSOCIATED PHOTORESIST COMPOSITION, AND DEVICE-FORMING METHOD” (Rohm and Haas Electronic Materials LLC, priority 2014, published 2015)

Experiments:
[1] = Water absorption (hygroscopicity): water weight gain of the solid; assay type: physicochemical; settings: for Weight Gain relative to Reference (%): 1 millimole solid in open vial in 4 liter vessel with 100 milliliters exposed water, 18 hours, reference triphenylsulfonium camphorsulfonate; for Matter State After Exposure to Water: after 18 hours exposure to water vapour
Procedure: Compounds that absorb atmospheric moisture may cause inaccurate amount additions into formulations and are also difficult to handle. […] To quantify this characteristic, 1 millimole of each solid was placed in an open vial and enclosed in a 4 liter vessel containing 100 milliliters of exposed water. The weight of each vial was prerecorded and reweighed 18 hours later to determine the water weight gain.

[2] = Shelf life testing: compound stability in solution by 1H NMR peak integration; settings: 100 millimolar in deuterated dimethylsulfoxide; for Compound Purity (%) 0 days / Compound Purity (%) 3 days / Compound Purity (%) 14 days: 1H NMR at 25° C.
Procedure: Compound stability was monitored by peak integration using ^1H NMR at 25° C. with relaxation delay set to 5 seconds on a 300 Megahertz Varian NMR spectrometer. Compound purity was calculated using the following formula: 100−((sum impurity peaks)/((total impurity peaks)+(total purity peaks))*100).

| Molecule | Weight Gain relative to Reference (%) [1] | Matter State After Exposure to Water [1] | Matter State Before Exposure to Water [1] | Hygroscopicity (in words) [1] | Compound Purity (%) 0 days [2] | Compound Purity (%) 3 days [2] | Compound Purity (%) 14 days [2] | Compound stability (in words) ([2]; up to 14 days) |
| --- | --- | --- | --- | --- | --- | --- | --- | --- |
| 5-(4-(tert-Butyl)phenyl)-5H-dibenzo[b,d]thiophen-5-ium 2,3,4,5,6-pentafluorophenolate [Example 5] | −29% | Solid | Solid | – | – | – | – | – |
| 5-Phenyl-5H-dibenzo[b,d]thiophen-5-ium 2,3,4,5,6-pentafluorophenolate [Example 2] | 43% | Solid | Solid | hygroscopic | – | – | – | – |
| 5-Phenyl-5H-dibenzo[b,d]thiophen-5-ium 2,3,5,6-tetrafluorophenolate [Example 3] | 29% | Solid | Solid | – | – | – | – | – |
| 5-Phenyl-5H-dibenzo[b,d]thiophen-5-ium 3,5-bis(trifluoromethyl)-phenolate [Example 4] | −14% | Solid | Solid | – | – | – | – | – |
| Cc1cc(-[s+]2c3ccccc3c3ccccc32)cc(C)c1OCC(=O)OC1(C)C2CC3CC(C2)CC1C3.[O-]c1c(F)c(F)c(F)c(F)c1F [Example 6, 5-(3,5-Dimethyl-4-(2-(((1R,3S,5r,7r)-2-methyladamantant-2-yl)oxy)-2-oxoethoxy)phenyl)-5H-dibenzo[b,d]thiophen-5-ium 2,3,4,5,6-pentafluorophenolate] | −43% | – | Solid | – | – | – | – | – |
| Triphenylsulfonium pentafluorophenolate [Example 1] | 29% | – | Solid | – | 100% | 100% | 100% | substantially more stable than triphenylsulfonium phenolate |
| triphenylsulfonium camphorsulfonate [reference compound] | – | Solid | Solid | – | 100% | 100% | 100% | – |
